Data on 2 compounds can be found in publication PMC2034157, “CRC/EORTC/NCI Joint Formulation Working Party: experiences in the formulation of investigational cytotoxic drugs” (British Journal of Cancer, 1995).

Series [1] in a line: Solution stability / decomposition studies. As to conditions: 66% aqueous acetone at 25 C. The source says:
Figwe 3 Chemical stnruu of disulphonated aluminium phthalocyamne.

For the next series, the system named is solid tumour models. As to the kind of experiment: Activity in solid tumour models. The format is in vivo. Conditions: several solid tumour models. The text has this: (§1) Brsh Jowbnl d Cancer ( ) 72, 210-218 ? […] Figwe 3 Chemical stnruu of disulphonated aluminium phthalocyamne.
The nature of another series: Aqueous solubility. Conditions: water / aqueous solution.
The conditions of series [2]: in 2 h; 10% fat emulsion (Intralipid), 0.7 mg ml-1, 1% DMA, 5% Cremophor EL; ref El-Sayed and Repta 1983; cited from earlier work.
A short description of series [3]: In vitro anti-tumour activity. It is filed as cell-based.
Description: as §1

A short description of series [4]: In vivo anti-tumour activity.
Description: as §1

Series [5] can be described thus: Preliminary murine toxicological study. As to conditions: PET solvent system formulation. It is filed as in vivo.
Description: as §1

Turning to `CC(C)NC(=O)OCc1c(COC(=O)NC(C)C)c(-c2ccc(Cl)c(Cl)c2)n2c1CCC2` [NSC-278214, reference compound], the half-life entry in series [1] is “around 5 mi”. The anti-tumour activity result in the series on solid tumour models is recorded as “activity”. For the same compound, the “aqueous solubility (in words)” value in “Aqueous solubility” is recorded as “negligible”. Also, the drug decomposed result in series [2] was “about 10%”.
With `COc1ccc(/C=C\c2cc(OC)c(OC)c(OC)c2)cc1O` [Combretastatin A4], the “in vitro anti-tumour activity” value in series [3] was “excellent”. In series [4], the in vivo activity result is “no significant”. Moreover, the local tolerance entry in series [5] is reported as “severe irritation at the injection site”.
